Measured values from patent publication US20230233567A1, “BELVARAFENIB FOR USE IN CANCER TREATMENT” (Hanmi Pharm. Co., Ltd., priority 2020, published 2023).

Tests used:
[1] = system: CAL-62 (KRAS^G12R); experiment: In vitro cell growth inhibition, thyroid cancer; format: cell-based; conditions: Homo sapiens
[2] = biological target: RAF-1 (CRAF) Y340D Y341D (Homo sapiens, UniProt P04049, Y340D/Y341D); experiment: In vitro kinase assay; format: biochemical
Procedure: (§1) The in vitro kinase inhibitory selectivity and activity of belvarafenib were evaluated in a kinase panel assay against 189 kinases and a subsequent confirmatory assay against selected kinases by using Z′-Lyte® biochemical assay, Lantha® binding assay and Adapter® assay.

[3] = biological target: CSF1R (FMS) (Homo sapiens, UniProt P07333); experiment: In vitro kinase assay; format: biochemical
Procedure: as §1

[4] = biological target: BRAF (Homo sapiens, UniProt P15056); experiment: In vitro kinase assay; format: biochemical
Procedure: as §1

[5] = biological target: T1, DDR2 (Homo sapiens, UniProt Q16832); experiment: In vitro kinase assay; format: biochemical
T1 sequence (Q16832 22-855): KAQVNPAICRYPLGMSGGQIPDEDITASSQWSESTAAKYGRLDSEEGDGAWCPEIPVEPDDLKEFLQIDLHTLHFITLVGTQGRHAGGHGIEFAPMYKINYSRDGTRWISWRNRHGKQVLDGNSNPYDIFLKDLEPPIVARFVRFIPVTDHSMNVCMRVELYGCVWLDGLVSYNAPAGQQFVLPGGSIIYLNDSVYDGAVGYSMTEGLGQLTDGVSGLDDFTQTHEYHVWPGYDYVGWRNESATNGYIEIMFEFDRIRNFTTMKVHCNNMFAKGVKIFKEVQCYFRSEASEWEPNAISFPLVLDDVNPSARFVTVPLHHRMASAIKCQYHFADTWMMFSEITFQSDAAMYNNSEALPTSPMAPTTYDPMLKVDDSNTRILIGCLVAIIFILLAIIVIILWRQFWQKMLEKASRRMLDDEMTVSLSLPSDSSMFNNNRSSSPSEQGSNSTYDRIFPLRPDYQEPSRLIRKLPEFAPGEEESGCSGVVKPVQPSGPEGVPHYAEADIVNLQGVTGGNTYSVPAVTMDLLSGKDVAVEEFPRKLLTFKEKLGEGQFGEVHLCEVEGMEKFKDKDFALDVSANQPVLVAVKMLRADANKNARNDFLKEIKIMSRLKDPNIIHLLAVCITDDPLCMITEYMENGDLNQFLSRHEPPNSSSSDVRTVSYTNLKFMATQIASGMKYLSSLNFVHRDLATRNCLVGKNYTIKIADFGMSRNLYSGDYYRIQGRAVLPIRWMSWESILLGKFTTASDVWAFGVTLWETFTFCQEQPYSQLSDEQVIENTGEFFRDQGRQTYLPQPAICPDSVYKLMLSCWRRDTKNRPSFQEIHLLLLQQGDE
Procedure: as §1

[6] = biological target: BRAF^V599E (Homo sapiens, UniProt P15056, V600E); experiment: In vitro kinase assay; format: biochemical; conditions: read-out: inhibition of enzymatic activity, BRAF^V599E
Procedure: as §1

[7] = biological target: DDR1 (Homo sapiens, UniProt Q08345); experiment: In vitro kinase assay; format: biochemical
Procedure: as §1

RAF-1 (CRAF) Y340D Y341D, sequence (P04049 whole entry Y340D/Y341D): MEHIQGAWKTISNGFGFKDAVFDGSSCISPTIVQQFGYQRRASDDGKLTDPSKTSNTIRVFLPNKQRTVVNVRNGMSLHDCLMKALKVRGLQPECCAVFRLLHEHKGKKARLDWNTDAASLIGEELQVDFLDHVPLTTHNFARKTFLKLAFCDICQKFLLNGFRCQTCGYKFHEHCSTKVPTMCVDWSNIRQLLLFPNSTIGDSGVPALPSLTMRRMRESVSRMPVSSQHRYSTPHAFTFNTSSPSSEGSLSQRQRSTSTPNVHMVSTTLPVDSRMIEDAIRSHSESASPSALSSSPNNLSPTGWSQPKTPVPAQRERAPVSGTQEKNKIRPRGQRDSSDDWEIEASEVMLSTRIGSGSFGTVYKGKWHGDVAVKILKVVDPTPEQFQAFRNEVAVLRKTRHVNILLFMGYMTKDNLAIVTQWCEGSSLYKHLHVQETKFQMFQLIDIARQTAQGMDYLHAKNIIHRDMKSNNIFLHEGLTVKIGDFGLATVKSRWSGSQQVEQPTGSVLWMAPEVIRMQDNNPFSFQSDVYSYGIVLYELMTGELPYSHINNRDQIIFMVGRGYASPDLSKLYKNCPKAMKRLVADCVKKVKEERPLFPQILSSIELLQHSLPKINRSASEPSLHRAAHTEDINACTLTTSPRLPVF
BRAF, sequence (P15056 whole entry): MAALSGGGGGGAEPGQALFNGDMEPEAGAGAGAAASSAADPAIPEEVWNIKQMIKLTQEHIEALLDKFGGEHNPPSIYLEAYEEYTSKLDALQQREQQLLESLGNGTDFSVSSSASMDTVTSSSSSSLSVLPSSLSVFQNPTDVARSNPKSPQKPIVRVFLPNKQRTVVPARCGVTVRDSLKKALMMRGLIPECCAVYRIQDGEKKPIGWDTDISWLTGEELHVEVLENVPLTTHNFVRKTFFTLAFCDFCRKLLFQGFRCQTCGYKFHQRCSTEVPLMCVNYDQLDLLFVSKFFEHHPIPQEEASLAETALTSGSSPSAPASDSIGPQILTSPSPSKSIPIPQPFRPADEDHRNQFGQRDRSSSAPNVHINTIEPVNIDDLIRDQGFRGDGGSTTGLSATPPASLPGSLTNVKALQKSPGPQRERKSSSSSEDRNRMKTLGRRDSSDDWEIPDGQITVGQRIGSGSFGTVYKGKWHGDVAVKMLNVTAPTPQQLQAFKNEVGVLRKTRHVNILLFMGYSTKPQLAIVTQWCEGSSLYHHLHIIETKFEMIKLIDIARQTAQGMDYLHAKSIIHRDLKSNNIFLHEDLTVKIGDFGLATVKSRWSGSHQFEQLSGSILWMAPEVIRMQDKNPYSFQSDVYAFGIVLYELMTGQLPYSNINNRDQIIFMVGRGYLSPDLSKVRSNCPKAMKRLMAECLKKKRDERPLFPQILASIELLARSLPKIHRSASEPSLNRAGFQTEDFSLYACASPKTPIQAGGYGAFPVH
DDR1, sequence (Q08345 19-913): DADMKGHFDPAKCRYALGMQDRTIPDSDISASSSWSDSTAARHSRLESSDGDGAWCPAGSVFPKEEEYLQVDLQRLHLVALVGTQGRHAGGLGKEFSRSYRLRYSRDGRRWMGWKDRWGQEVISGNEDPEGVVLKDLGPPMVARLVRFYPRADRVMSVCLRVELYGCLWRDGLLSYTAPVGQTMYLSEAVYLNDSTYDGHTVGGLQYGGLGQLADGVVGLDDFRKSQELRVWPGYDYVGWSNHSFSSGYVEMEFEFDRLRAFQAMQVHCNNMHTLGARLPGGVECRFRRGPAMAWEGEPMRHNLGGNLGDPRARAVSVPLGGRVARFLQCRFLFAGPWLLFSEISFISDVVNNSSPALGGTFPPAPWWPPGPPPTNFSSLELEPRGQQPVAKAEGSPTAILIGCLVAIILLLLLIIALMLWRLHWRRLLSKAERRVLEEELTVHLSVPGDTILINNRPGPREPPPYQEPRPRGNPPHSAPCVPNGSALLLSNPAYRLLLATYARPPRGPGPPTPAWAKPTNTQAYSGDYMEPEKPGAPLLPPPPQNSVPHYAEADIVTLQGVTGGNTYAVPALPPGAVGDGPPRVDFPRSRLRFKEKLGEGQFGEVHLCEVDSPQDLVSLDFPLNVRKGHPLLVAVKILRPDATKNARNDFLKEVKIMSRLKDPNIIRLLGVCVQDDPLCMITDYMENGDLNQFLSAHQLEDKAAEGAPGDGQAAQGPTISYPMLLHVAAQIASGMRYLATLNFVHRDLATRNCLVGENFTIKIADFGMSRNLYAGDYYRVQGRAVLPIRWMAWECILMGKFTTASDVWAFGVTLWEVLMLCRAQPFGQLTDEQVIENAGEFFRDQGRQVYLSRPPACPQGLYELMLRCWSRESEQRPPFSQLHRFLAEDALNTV
CSF1R (FMS), sequence (P07333 20-972): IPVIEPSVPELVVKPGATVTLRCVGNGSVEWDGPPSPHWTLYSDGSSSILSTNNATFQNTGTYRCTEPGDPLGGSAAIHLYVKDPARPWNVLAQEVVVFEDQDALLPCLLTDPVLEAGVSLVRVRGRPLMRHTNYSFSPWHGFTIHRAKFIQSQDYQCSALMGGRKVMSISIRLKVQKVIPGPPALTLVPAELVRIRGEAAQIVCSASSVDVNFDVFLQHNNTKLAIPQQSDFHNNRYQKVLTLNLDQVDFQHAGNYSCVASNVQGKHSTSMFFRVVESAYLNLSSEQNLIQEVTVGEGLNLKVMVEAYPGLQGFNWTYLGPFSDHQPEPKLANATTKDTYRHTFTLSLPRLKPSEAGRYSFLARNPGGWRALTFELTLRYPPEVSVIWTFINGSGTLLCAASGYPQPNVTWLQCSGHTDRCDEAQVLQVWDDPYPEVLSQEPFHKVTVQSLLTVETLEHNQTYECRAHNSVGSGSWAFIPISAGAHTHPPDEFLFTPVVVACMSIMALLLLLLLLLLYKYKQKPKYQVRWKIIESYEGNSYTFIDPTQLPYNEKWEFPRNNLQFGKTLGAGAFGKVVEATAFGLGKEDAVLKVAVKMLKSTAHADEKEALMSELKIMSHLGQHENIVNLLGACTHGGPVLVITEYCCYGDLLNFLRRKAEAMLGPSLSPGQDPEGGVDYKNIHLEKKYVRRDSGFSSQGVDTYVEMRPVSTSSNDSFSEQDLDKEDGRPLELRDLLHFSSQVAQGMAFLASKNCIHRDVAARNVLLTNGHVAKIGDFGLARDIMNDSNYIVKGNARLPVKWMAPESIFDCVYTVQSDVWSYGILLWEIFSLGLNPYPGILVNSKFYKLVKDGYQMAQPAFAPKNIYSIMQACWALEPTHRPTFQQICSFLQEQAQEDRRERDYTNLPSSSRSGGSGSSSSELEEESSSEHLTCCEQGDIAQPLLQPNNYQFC
BRAF^V599E, sequence (P15056 416-766 V600E limits assumed): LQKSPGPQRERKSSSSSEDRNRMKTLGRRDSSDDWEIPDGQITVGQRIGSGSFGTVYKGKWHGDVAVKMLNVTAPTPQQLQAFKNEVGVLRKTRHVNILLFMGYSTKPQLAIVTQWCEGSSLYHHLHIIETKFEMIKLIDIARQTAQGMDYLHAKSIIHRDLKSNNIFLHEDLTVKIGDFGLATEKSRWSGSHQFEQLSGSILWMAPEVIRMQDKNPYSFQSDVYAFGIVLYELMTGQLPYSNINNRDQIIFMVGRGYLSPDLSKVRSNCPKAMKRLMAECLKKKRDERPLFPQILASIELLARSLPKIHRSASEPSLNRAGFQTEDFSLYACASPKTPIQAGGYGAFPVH

Q: For `Cc1ccc2c(Nc3cccc(Cl)c3F)nccc2c1NC(=O)c1csc2c(N)ncnc12` [Belvarafenib], which GI50 [1] is on record?
A: 479 nM

Q: And the inhibition at 1 µM ([2]; at 1 μM, read-out: inhibition of enzymatic activity, RAF-1 (CRAF) Y340D Y341D)?
A: > 90%

Q: What about the IC50 ([2]; confirmatory assay) of the same compound?
A: 2 nM

Q: And the inhibition at 1 µM ([3]; at 1 μM, read-out: inhibition of enzymatic activity, CSF1R (FMS))?
A: > 90%

Q: What about the IC50 ([3]; confirmatory assay) of the same compound?
A: 44 nM

Q: What about the inhibition at 1 µM ([4]; at 1 μM, read-out: inhibition of enzymatic activity, BRAF) of the same compound?
A: > 90%

Q: And the IC50 ([4]; confirmatory assay)?
A: 41 nM

Q: What about the inhibition at 1 µM ([5]; at 1 μM, read-out: inhibition of enzymatic activity, DDR2) of the same compound?
A: > 90%

Q: What about the IC50 ([5]; confirmatory assay) of the same compound?
A: 182 nM

Q: And the inhibition at 1 µM [6]?
A: > 90%

Q: And the inhibition at 1 µM ([7]; at 1 μM, read-out: inhibition of enzymatic activity, DDR1)?
A: > 90%

Q: What about the IC50 ([7]; confirmatory assay) of the same compound?
A: 77 nM
